The values below come from publication PMC8343220, “The selectivity of α‐adrenoceptor agonists for the human α1A, α1B, and α1D‐adrenoceptors” (Pharmacology Research & Perspectives, 2021).

For one assay, the target named is T1, human α1B‐adrenoceptor (Homo sapiens, UniProt P35368).
T1 construct: expressed in transfected cells; host or cells: CHO-K1
T1 sequence (P35368 1-520): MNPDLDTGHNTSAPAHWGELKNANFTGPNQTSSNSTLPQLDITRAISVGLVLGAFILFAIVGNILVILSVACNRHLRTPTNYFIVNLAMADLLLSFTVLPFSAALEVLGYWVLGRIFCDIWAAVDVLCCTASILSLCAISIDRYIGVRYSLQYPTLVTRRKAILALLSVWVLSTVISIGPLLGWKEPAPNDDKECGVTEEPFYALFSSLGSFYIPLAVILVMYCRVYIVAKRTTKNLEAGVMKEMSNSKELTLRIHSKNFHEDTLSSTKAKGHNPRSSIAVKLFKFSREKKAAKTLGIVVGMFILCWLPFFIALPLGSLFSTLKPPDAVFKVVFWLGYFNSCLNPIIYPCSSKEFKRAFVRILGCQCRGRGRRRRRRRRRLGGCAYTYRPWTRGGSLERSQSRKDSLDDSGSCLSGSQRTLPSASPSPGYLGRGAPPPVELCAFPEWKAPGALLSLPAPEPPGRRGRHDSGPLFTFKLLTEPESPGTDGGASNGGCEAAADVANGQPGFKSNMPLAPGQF
As to the kind of experiment: ^3H‐prazosin whole‐cell radioligand binding, CHO‐α1B cells. To be noted: for Kd / IC50: CHO‐α1B cells; for Affinity selectivity ratio α1B vs α1D: left sub‐column: higher affinity for α1B than α1D; for IC50: printed as IC50> log value.

Assay [1] deals with parental CHO cell line without any transfected receptors. As to the kind of experiment: Intracellular calcium mobilization, parent CHO cells without transfected receptors. The format is cell-based, Chinese hamster. To be noted: Cricetulus griseus; CHO cells without transfected receptors; response at maximum concentration used (c2), as % of ionomycin (10μM) response; mean ± s.e.m.; read-out: Intracellular calcium release % ionomycin. On the technique in general: A change in cytosolic calcium serves as a functional read-out for many receptors and channels.

For assay [2], the target named is T2, human α1A‐adrenoceptor (Homo sapiens, UniProt P35348).
T2 construct: expressed in transfected cells; host or cells: CHO-K1
T2 sequence (P35348 1-466): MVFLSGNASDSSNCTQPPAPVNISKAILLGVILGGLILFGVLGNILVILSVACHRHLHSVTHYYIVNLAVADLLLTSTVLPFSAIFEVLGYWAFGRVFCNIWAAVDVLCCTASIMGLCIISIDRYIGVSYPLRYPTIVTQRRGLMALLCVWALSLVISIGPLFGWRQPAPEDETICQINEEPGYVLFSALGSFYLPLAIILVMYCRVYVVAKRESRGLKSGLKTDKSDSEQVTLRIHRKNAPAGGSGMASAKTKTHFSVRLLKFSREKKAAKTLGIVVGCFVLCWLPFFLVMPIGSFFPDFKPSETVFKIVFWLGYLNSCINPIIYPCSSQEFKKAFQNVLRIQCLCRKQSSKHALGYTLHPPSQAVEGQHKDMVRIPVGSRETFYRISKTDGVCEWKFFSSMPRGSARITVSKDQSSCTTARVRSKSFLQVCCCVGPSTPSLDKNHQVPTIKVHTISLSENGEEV
As to the kind of experiment: ERK1/2‐phosphorylation (Surefire Alphascreen), CHO‐α1A cells. It is filed as cell-based. To be noted: CHO‐α1A cells, ^a bi‐phasic: initial stimulatory part; for EC50: 2–4 min, ^b also active in parent CHO cells, read-out: ERK1/2‐phosphorylation Log EC50 (converted); for ERK1/2‐phosphorylation % PDBu: % of 10 µM PDBu. On the technique in general: Bead proximity is the source of the signal in Alpha formats.

In assay [3] the target is T3, human α1D‐adrenoceptor (full length) (Homo sapiens, UniProt P25100).
T3 construct: human α1D‐adrenoceptor (full length) were used; expressed in transfected cells; host or cells: CHO-K1
T3 sequence (P25100 1-572): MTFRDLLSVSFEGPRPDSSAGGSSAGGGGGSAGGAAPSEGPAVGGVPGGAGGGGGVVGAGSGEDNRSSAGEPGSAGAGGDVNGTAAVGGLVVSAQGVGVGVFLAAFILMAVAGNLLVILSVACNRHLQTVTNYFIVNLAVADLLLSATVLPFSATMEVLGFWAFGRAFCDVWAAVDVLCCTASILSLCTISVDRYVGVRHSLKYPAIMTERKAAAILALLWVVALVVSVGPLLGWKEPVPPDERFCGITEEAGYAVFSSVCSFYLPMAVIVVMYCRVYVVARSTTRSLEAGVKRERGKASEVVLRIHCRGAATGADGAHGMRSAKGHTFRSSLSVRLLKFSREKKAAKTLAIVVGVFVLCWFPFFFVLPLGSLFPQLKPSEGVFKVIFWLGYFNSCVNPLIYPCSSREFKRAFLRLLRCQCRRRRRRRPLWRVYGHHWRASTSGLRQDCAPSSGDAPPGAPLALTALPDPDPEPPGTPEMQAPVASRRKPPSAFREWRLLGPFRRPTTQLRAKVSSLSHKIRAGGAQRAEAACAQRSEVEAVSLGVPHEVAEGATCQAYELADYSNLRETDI
As to the kind of experiment: ERK1/2‐phosphorylation (Surefire Alphascreen), CHO‐α1D cells. The format is cell-based. To be noted: CHO‐α1D cells; for EC50: read-out: ERK1/2‐phosphorylation Log EC50 (converted); for ERK1/2‐phosphorylation % PDBu: maximal response as % of PDBu.

Assay [4] deals with T2, human α1A‐adrenoceptor. As to the kind of experiment: ^3H‐cAMP accumulation, CHO‐α1A cells. The format is cell-based. To be noted: CHO‐α1A cells; for EC50: 5 h, read-out: cAMP accumulation Log EC50 (converted); for cAMP accumulation % forskolin: % of 10 µM forskolin response; for cAMP accumulation % forskolin at 100 µM: response at 100 μM ligand, no EC50 obtained. In general terms: Cyclic AMP is a second messenger, typically raised through Gs and lowered through Gi signalling.

[5] abbreviates: given as log KD (negative), mean ± SEM.
The mark [6] stands for this setting: Log KD α1B, ^3H‐prazosin whole cell binding, given as log KD (negative), mean ± SEM.
Setting [7] is: Log KD, ^3H‐prazosin binding, whole‐cell binding (from Table 1), given as log KD (negative numbers).

As for `c1ccc(C2CC2)c(OCC2=NCCN2)c1` [Cirazoline], the Kd on human α1B‐adrenoceptor (setting [5]) was 7.94 µM. Besides, in assay [1], the Emax is 4.5 ± 0.8%. In addition, the EC50 was 0.000955 µM at human α1A‐adrenoceptor [2], 3.8 µM in assay [3] (log values given negative) and 0.123 µM on human α1A‐adrenoceptor [4]. Besides, the “ERK1/2‐phosphorylation % PDBu” value stood at 80.8 ± 3.6% on human α1A‐adrenoceptor [2] and 36.5 ± 3.2% in assay [3]. Besides, the “cAMP accumulation % forskolin” value at human α1A‐adrenoceptor [4] stood at 108.9 ± 6.5%.
Take `CC(CCc1ccc(O)cc1)NCCc1ccc(O)c(O)c1` (stereo not shown) [Dobutamine]: the Kd at human α1B‐adrenoceptor (setting [6]) and at human α1B‐adrenoceptor (setting [7]) was 3.63 µM throughout. Further, the “Affinity selectivity ratio α1B vs α1D” value at human α1B‐adrenoceptor was 1.2 fold. Further, the EC50 at human α1A‐adrenoceptor [2] is 0.0437 µM; in assay [3] (log values given negative), 0.891 µM; at human α1A‐adrenoceptor [4] it was 0.871 µM. For the same compound, the “ERK1/2‐phosphorylation % PDBu” value at human α1A‐adrenoceptor [2] was 85.5 ± 4.3%; in assay [3] it was 26.2 ± 7.5%. Further, the “cAMP accumulation % forskolin” value on human α1A‐adrenoceptor [4] worked out at 11.9 ± 1.6%.
Regarding `CCNCC(O)c1cccc(O)c1` (stereo not shown) [Etilefrine], the IC50 at human α1B‐adrenoceptor was over 1000 µM. Besides, the EC50 at human α1A‐adrenoceptor [2] was 0.145 µM; in assay [3] (log values given negative), 1.51 µM. In addition, the “ERK1/2‐phosphorylation % PDBu” value at human α1A‐adrenoceptor [2] came out at 72.8 ± 7.0%; in assay [3], 16.8 ± 2.0%. For the same compound, on human α1A‐adrenoceptor [4], the “cAMP accumulation % forskolin at 100 µM” value stood at 82.7 ± 5.5%.
Turning to `N=C(N)NC(=O)Cc1c(Cl)cccc1Cl` [Guanfacine], on human α1B‐adrenoceptor (setting [5]), binding was put at a Kd of 135 µM. Besides, the Emax in assay [1] was 11.5 ± 2.9%. Further, the EC50 at human α1A‐adrenoceptor [2] was 0.0347 µM; in assay [3] (log values given negative) it was 6.92 µM; on human α1A‐adrenoceptor [4] it was 2.88 µM. The entries for the “ERK1/2‐phosphorylation % PDBu” value (at human α1A‐adrenoceptor [2]; in assay [3]) were 87.4 ± 2.3% and 16.1 ± 4.0%, respectively. Also, the “cAMP accumulation % forskolin” value on human α1A‐adrenoceptor [4] came out at 41.1 ± 2.3%.
The compound `C[C@H](N)[C@H](O)c1cccc(O)c1` [Metaraminol] returned an IC50 at human α1B‐adrenoceptor of over 1000 µM. The EC50 at human α1A‐adrenoceptor [2] was 0.0977 µM; in assay [3] (log values given negative) it was 2.69 µM. Besides, the “ERK1/2‐phosphorylation % PDBu” value on human α1A‐adrenoceptor [2] was determined as 83.9 ± 4.1%; in assay [3], 20.5 ± 3.0%. Also, the “cAMP accumulation % forskolin at 100 µM” value at human α1A‐adrenoceptor [4] turned out to be 122.7 ± 9.8%.
The compound `COc1ccc(OC)c(C(O)C(C)N)c1` (stereo not shown) [Methoxamine] showed an IC50 on human α1B‐adrenoceptor of over 1000 µM. Besides, the EC50 on human α1A‐adrenoceptor [2] is 0.0275 µM; in assay [3] (log values given negative) it was 8.32 µM; at human α1A‐adrenoceptor [4], 4.9 µM. Further, the “ERK1/2‐phosphorylation % PDBu” value on human α1A‐adrenoceptor [2] was determined as 81.4 ± 4.5%; in assay [3] it was 14.2 ± 3.9%. Also, the “cAMP accumulation % forskolin” value on human α1A‐adrenoceptor [4] is listed as 120.0 ± 3.7%.
For the compound `c1ccc2c(CC3=NCCN3)cccc2c1` [Naphazoline], the Kd on human α1B‐adrenoceptor (setting [6]) and on human α1B‐adrenoceptor (setting [7]) was 1.82 µM in each case. On human α1B‐adrenoceptor, the “Affinity selectivity ratio α1B vs α1D” value worked out at 1.1 fold. Moreover, the EC50 at human α1A‐adrenoceptor [2] is 0.00407 µM; in assay [3] (log values given negative), 13.8 µM; on human α1A‐adrenoceptor [4] it was 0.269 µM. Also, the “ERK1/2‐phosphorylation % PDBu” value at human α1A‐adrenoceptor [2] is 90.9 ± 4.4%; in assay [3], 33.0 ± 4.7%. The “cAMP accumulation % forskolin” value on human α1A‐adrenoceptor [4] turned out to be 57.9 ± 5.7%.
On to `Clc1ccc2nsnc2c1NC1=NCCN1` [Tizanidine], for which the Kd on human α1B‐adrenoceptor (setting [6]) and on human α1B‐adrenoceptor (setting [7]) was 44.7 µM throughout. Besides, the EC50 is 0.0372 µM at human α1A‐adrenoceptor [2] and 1.66 µM on human α1A‐adrenoceptor [4]. In addition, the “ERK1/2‐phosphorylation % PDBu” value at human α1A‐adrenoceptor [2] is 82.1 ± 3.9%; in assay [3], “No response”. Also, the “ERK1/2‐phosphorylation Log EC50” value in assay [3] (log values given negative) was “No response”. Also, the “cAMP accumulation % forskolin” value at human α1A‐adrenoceptor [4] is 65.6 ± 6.5%.

The Kd is the concentration at which binding is half-saturated. Low values mean higher affinity, high ones lower affinity. As a reminder, the IC50 is the concentration that gives 50% inhibition. Low readings indicate greater potency in that assay, high ones weaker potency in that assay.
